Data on three molecules can be found in patent EP4656194A1, “COMPOSITION FOR PREVENTING OR TREATING POST-TRAUMATIC STRESS DISORDER, COMPRISING PHOSPHODIESTERASE TYPE 5 INHIBITOR AS ACTIVE INGREDIENT” (Aribio Co., Ltd, priority 2023, dated 2024).

Test [1] deals with context-specific fear memory. The test is described as follows: Passive avoidance test. It counts as in vivo. The conditions noted are these: 12 MPK p.o. once daily, after 15 doses, followed by electric shock; male ICR mice. The procedure:
(§1) Twenty-eight male ICR mice, 5 weeks old, weighing approximately 27-30 g, were used. The animals were housed in a controlled environment with a temperature of 26.8 ± 0.5°C, relative humidity of 48.4 ± 1.7%, and lighting from 07:00 to 19:00. They were fed a standard diet (AIN-93G diet) and given free access to drinking water. After 7 days of acclimation and habituation, healthy animals were selected for the experiments.
(§2) Mirodenafil was dissolved in 10 mL of distilled water to prepare a 12 mg/kg (MPK) solution. Sildenafil and tadalafil were similarly prepared at 12 MPK each.
(§3) • 1) Control group (n=7): p.o. administration of distilled water (D.W.) • 2) Experimental group 1 (n=7): p.o. administration of mirodenafil (12 MPK) • 3) Experimental group 2 (n=7): p.o. administration of sildenafil (12 MPK) • 4) Experimental group 3 (n=7): p.o. administration of tadalafil (12 MPK)
(§4) Following 7 days of acclimation, the control group received distilled water orally once daily for 15 days, and the experimental groups received their respective drugs orally once daily for 15 days.
The passive avoidance step-through apparatus was illuminated in the bright chamber at 50% lightness. Mice were placed inside and allowed to move freely between the bright and dark chambers for 5 minutes. After 5 minutes, accommodation was terminated, and mice rested in their home cages.
Mice that completed accommodation were placed in the bright chamber under the same lighting conditions. When the mouse fully entered the dark chamber (all four paws on the floor), an electric shock (0.4 mA, 2 seconds, repeated twice with a 2-second interval) was delivered (maximum latency: 65 seconds, single session). […]
Mice that completed training were placed again in the bright chamber under the same conditions. The latency to enter the dark chamber (all four paws touching the floor) was recorded without shock (maximum latency: 300 seconds). […]
(§5) Data were expressed as mean ± standard error of the mean (SEM). Statistical significance was assessed by T-test with thresholds of P < 0.01 or *0.01 < P < 0.05. […]

For test [2], the system named is object recognition and memory. The test is described as follows: Novel object recognition test. It counts as in vivo, male ICR mice. The conditions noted are these: 12 MPK p.o. once daily, eight days after drug administration; control group 49.0%. The procedure:
as §1, §2, §3, §4
Mice were placed in the center of a rat cage and allowed to explore freely for 5 minutes (accommodation). Afterward, mice rested in their home cages.
Following accommodation, two identical objects (Object A and Object B) of the same color, shape, and size were placed at fixed intervals in the cage. […]
Twenty-four hours after Training 1, mice were reintroduced to the cage with the same objects (A and B) spaced similarly. Exploration time of each object was recorded for 5 minutes. […]
Twenty-four hours after Training 2, mice were introduced to the cage containing one familiar object (A) and one novel object (C) differing in color, shape, or size. Exploration time was recorded for 5 minutes. The percentage of time spent exploring each object was calculated using the following formula: (Formula to calculate % exploration time for objects) • i. […]
as §5

The subject of test [3] is spatial recognition and memory. The test is described as follows: Y-maze test. It counts as in vivo, male ICR mice. The conditions noted are these: 12 MPK p.o. once daily, ten days after drug administration; control 61.8%. The procedure:
as §1, §2, §3, §4
Mice were placed at the center of a Y-maze and allowed to explore for 8 minutes. Entries were recorded when all four paws fully entered an arm. The maze was cleaned with 70% alcohol between tests. Spontaneous alternation behavior was analyzed using the Yamada statistical method. An alternation was counted when the mouse consecutively entered three different arms. The percentage of spontaneous alternation was calculated as (number of alternations / total arm entries) × 100. • iii. Recording data(ex): BCABCBABCBCABBCACBACCABCABCACBCABC • iv. [formula]
Data were expressed as mean ± standard error of the mean (SEM). Statistical significance was assessed by T-test with thresholds of P < 0.01 or *0.01 < P < 0.05. Data analysis and plotting were performed using Prism 8 software.

Structures are written as SMILES.

Take `CCCOc1ccc(S(=O)(=O)N2CCN(CCO)CC2)cc1-c1nc2c(CCC)cn(CC)c2c(=O)[nH]1` [mirodenafil]: the “decrease of latency time compared to the control” value (from here on “decrease of latency time”) in test [1] is listed as 73.5%. Moreover, the “exploration of novel objects” value in test [2] came to 53.7%. Besides, in test [3], the spontaneous alternation rates is on record as 58.4%.

Consider `CCCc1nn(C)c2c(=O)[nH]c(-c3cc(S(=O)(=O)N4CCN(C)CC4)ccc3OCC)nc12` [sildenafil], for which, in test [1], the “decrease of latency time” value stood at 55.5%. In addition, the “exploration of novel objects” value in test [2] is reported as 57.9%. In addition, in test [3], the spontaneous alternation rates was found to be 60.7%.

As to `CN1CC(=O)N2[C@H](c3ccc4c(c3)OCO4)c3[nH]c4ccccc4c3C[C@@H]2C1=O` [tadalafil], the “decrease of latency time” value in test [1] was 63.2%. The “exploration of novel objects” value in test [2] turned out to be 57.0%. Besides, the spontaneous alternation rates in test [3] was 59.6%.
